Measured values taken from patent US20250161245A1, “A MIXTURE OF UREA, BIURET AND N-CONTAINING BY-PRODUCTS CREATED DURING BIURET PRODUCTION AS A DIETARY NON-PROTEIN NITROGEN-SOURCE FOR RUMINANTS AND USES THEREOF” (Yara International ASA, priority 2022, published 2025).

Legend:
[1] = animal performance of steers with NPN supplementation (Example 3); type: in vivo, crossbred yearling steers
Source text: A total of 72 crossbred yearling steers [303 kg±29 kg initial body weight (BW) were stratified by body weight (BW) and randomly allocated to three treatments. All steers consumed a basal diet of corn silage, cotton-gin trash, and a premix of vitamins and minerals.
The steers were housed in pens (8 steers/pen, 3 pens/treatment). The steers were supplemented with two different NPN-sources on an isonitrogenous basis, considering as reference the N provided by urea when included at 1 wt. % of the diet in dry matter (DM) basis.
In Table 5, the composition of the basal diet supplemented with two different types of NPN, i.e. urea (Urea) (46% N) and a mixture of urea and biuret according to the present disclosure (UB), with composition as in example 1 (41% N) is shown.
The gain to feed ratio (G:F) was computed as the ratio of the average daily gain (ADG) to daily dry matter intake (DMI). The feed intake was recorded daily. The individual intake was determined via the GrowSafe® intake monitoring system. In cattle management, GrowSafe Systems is a commonly used tool to closely monitor individual animal feeding data using radio frequency identification (RFID) tag technology. The animals are equipped with a unique RFID tag that is read by the feed bunks each time the animal lowers its head into the bunk to consume feed. Average daily weight gain (ADG) and feed efficiency were calculated during the performance evaluation. The ADG was determined by the difference between the final BW and the initial BW divided by the number of days of the performance evaluation (56 days). The initial BW was calculated as the average unshrunk BW of […] on days 16 and 17. The final BW was the average unshrunk BW measured on days 72 and 73. The unshrunk BW was obtained every 14 days.

ruminal fluid = assay: in vitro dry and organic matter digestibility, batch culture (Example 4); type: cell-based, Angus crossbred steers; conditions: 24 hours of incubation, corn silage-based diet
Experimental: The in vitro incubations were conducted on three separate days (replicates). A representative sample of digesta was collected from different places in the rumen of ruminally cannulated steers and strained through 4 layers of cheesecloth, placed in pre-warmed thermos containers, and transported to the laboratory within 30 minutes after the collection. In the laboratory, the ruminal fluid from the two steers was maintained under constant CO2-flux and was combined in equal proportions. This combined ruminal fluid was mixed with McDougall's buffer (McDougall, 1948) with and without 0.077 g/liter of 10 wt. % ammonium sulfate enriched with ^15N in relation 1:4, and it was used as an inoculum. Two bottles of 500 ml fitted with a side arm and a rubber septum were incubated per treatment. […] At the end of the 24 hours incubation, the final pH was recorded, the bottles were placed on ice to prevent further microbial fermentation and two 10-ml samples were collected and acidified by adding 20 μl of a 20 vol/vol % of H2SO4-solution and were frozen at minus 20° C. until further analysis. […]
The concentration of ammonia-N at 12 and 24 hours in the incubation fluid was measured after centrifuging at 10,000×g for 15 minutes at 4° C. using an Avanti J-E centrifuge from Beckman Coulter® Incorporated. […]

In the case of `NC(N)=O` [Urea, urea], the DMI ([1]; days 0-14) is reported as 6.82 kg/day, the “G:F” value ([1]; days 0-14) is reported as 0.10 kg/kg and the DMI ([1]; days 0-28) is reported as 7.03 kg/day. For the same compound, the “G:F” value ([1]; days 0-28) was 0.11 kg/kg, the DMI ([1]; days 0-42) was 7.24 kg/day and the “G:F” value ([1]; days 0-42) was 0.14 kg/kg. The ADG ([1]; days 0-56) was 1.01 kg, the DMI ([1]; days 0-56) was 7.29 kg/day and the “G:F” value ([1]; days 0-56) was 0.14 kg/kg. For the same compound, the “DMI (% of BW)” value ([1]; steers) was 2.31 % of BW, the NEg ([1]; steers) was 0.55 Mcal/kg of DM and the “Initial BW” value ([1]; steers, baseline, NPN 1.00 wt. % urea or 1.12 wt. % UB of diet DM) was 288.69 kg. The “Final BW” value ([1]; steers, end of 56 days performance evaluation) was 343.69 kg, the IVDMD (ruminal fluid) was 45.08% and the IVOMD (ruminal fluid) was 65.38%.
